Assay results: patent US20250353873A1, “COMPOUNDS AND METHODS FOR MODULATING APOE EXPRESSION” (Ionis Pharmaceuticals, Inc., priority 2024, published 2025)
Strand notation (5' to 3'): a small letter for the sugar, then the base; units joined by * are phosphorothioate-linked, units joined directly phosphodiester-linked; [ ] holds rarer units or linkages, { } end groups; capitals alone tell only the bases. [ms] = mesyl phosphoramidate linkage; e = 2'-O-(2-methoxyethyl) (MOE); [5mC] = 5-methylcytosine; d = 2'-deoxy (DNA)

How the values were obtained:
human APOE RNA [1] = experiment: Activity in APOE 1549 knock-in mice, single ICV bolus, 2 weeks (Example 7); format: in vivo; settings: single ICV bolus of 300 μg, two weeks post treatment
Protocol: Modified oligonucleotides described above were tested in APOE knock-in mice.
APOE knock-in mice (model 41549) were obtained from Taconic Biosciences. APOE knock-in mice were divided into groups of 2 mice each. Each mouse received a single intracerebroventricular (ICV) bolus of 300 μg of modified oligonucleotide. A group of 4 mice received a single ICV bolus with PBS as a negative control.
Two weeks post treatment, mice were sacrificed and RNA was extracted from cortical brain tissue and spinal cord for quantitative real-time RT-PCR analysis of RNA expression of APOE using primer probe set RTS3073 (described herein above). APOE RNA levels were normalized to mouse Ppia. Mouse Ppia was amplified using primer probe set m_cyclo24 (forward sequence TCGCCGCTTGCTGCA, designated herein as SEQ ID NO: 16; reverse sequence ATCGGCCGTGATGTCGA, designated herein as SEQ ID NO: 17; probe sequence […], designated herein as SEQ ID NO: 18). Results are presented as percent human APOE RNA relative to the amount of human APOE RNA in PBS treated animals, (% control). Each experiment is identified in separate tables below.

human APOE RNA [2] = experiment: Activity in APOE C57BL/6NTac-Apoeem7250 knock-in mice, single ICV bolus, 20 weeks (Example 13); format: in vivo; settings: single ICV bolus 300 μg, 20 weeks post treatment, normalized to mouse Ppia
Method in brief: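 Knock-in mice (n=4) given a single ICV bolus of 300 μg oligonucleotide, PBS as control. After 20 weeks, human APOE RNA in cortex and spinal cord measured by RT-qPCR, normalized to mouse Ppia, expressed as % of PBS-treated animals.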

human APOE RNA [3] = experiment: Activity in APOE C57BL/6NTac-Apoeem7250 knock-in mice, single ICV bolus, 8 weeks (Example 11); format: in vivo; settings: for APOE RNA (% control) Cortex / APOE RNA (% control) Spinal Cord: single ICV bolus 300 μg, 8 weeks post treatment, normalized to mouse Ppia
Method in brief: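 Human APOE knock-in C57BL/6NTac mice given one ICV bolus of 300 μg oligonucleotide; PBS-dosed group as control. At 8 weeks, cortex and spinal cord RNA measured by qRT-PCR (human probe RTS3073), normalized to mouse Ppia, expressed as % of PBS control.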

human APOE RNA [4] = experiment: Activity in APOE C57BL/6NTac-Apoeem7250 knock-in mice, single ICV bolus, 16 weeks (Example 12); format: in vivo; settings: single ICV bolus 300 μg, 16 weeks post treatment, normalized to mouse Ppia
Method in brief: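 Knock-in mice (3-4 per group) received one ICV bolus of 300 μg oligonucleotide, PBS as control. After 16 weeks, human APOE RNA in cortex and spinal cord measured by RT-qPCR, normalized to mouse Ppia, and reported as % of PBS control.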

human APOE RNA [5] = experiment: Activity in APOE C57BL/6NTac-Apoeem7250 knock-in mice, single ICV bolus, 4 weeks (Example 10); format: in vivo; settings: single ICV bolus 300 μg
Method in brief: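 Knock-in mice (2–4 per group) received one 300 μg ICV bolus of oligonucleotide or PBS. After four weeks, human APOE RNA in cortex and spinal cord measured by RT-qPCR (primer probe set RTS3073), normalized to mouse Ppia, expressed as % of PBS controls.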

human APOE RNA [6] = experiment: Activity in APOE C57BL/6NTac-Apoeem7250 knock-in mice, single ICV bolus, 2 weeks (Example 9); format: in vivo; settings: single ICV bolus 300 μg
Protocol: Modified oligonucleotides described above were tested in the APOE knock-in mouse model C57BL/6NTac-Apoeem7250_B-A02(APOE)Tac, a heterozygous APOE mouse model. APOE knock-in mice used in this study express the full-length human APOE gene knocked into the mouse locus. Humanization of APOE gene was done via CRISPR/Cas-9-mediated gene editing, allowing for generation of a model with constitutive expression of human APOE gene. Targeting strategy was based on NCBI transcripts NM_009696.4 (mouse) and NM_000041.4 (human). Mouse genomic sequence from exon 1 to exon 4 (including the 5′ and 3′ UTRs) was replaced with the human counterpart from 141 bp upstream of exon 1 to 28 bp downstream of exon 4. A plasmid allowing expression of Cas9 mRNA, specific gRNA, and the puromycin resistance cassette, and a plasmid containing the homology regions of the mouse APOE gene, and the replaced human region were co-transfected into the Taconic Biosciences C57BL/6N Tac ES cell line. Homologous recombination clones were isolated using positive puromycin selection, and humanized allele was obtained after Cas9-mediated gene editing. C57BL/6NTac-Apoeem7250_B-A02(APOE)Tac mice were used in the in vivo experiments described below.
APOE C57BL/6NTac-Apoeem7250 knock-in mice were divided into groups of 3 mice each. Each mouse received a single ICV bolus of 300 μg of modified oligonucleotide. A group of 3 mice received a single ICV bolus with PBS as a negative control.
Two weeks post treatment, mice were sacrificed and RNA was extracted from cortical brain tissue and spinal cord for quantitative real-time RT-PCR analysis of RNA expression of APOE using human primer probe set RTS3073 (described herein above). APOE RNA levels were normalized to mouse Ppia. Mouse Ppia was amplified using primer probe set m_cyclo24 (described herein above). Results are presented as percent human APOE RNA relative to the amount of human APOE RNA in PBS treated animals, (% control).

human APOE RNA [7] = experiment: Dose-dependent inhibition of human APOE RNA in HepG2 cells, electroporation, 24 hours (Example 6); format: cell-based
Method in brief: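 HepG2 cells, 50,000 per well, electroporated with various oligonucleotide concentrations. APOE RNA measured with primer probe set RTS3073, normalized to GAPDH (RTS104), expressed as % of untreated control; IC50 then calculated.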

[8] = Cortex, C57BL/6NTac-Apoeem7250 knock-in mice, 4 weeks (Table 21)
[9] = Cortex, C57BL/6NTac-Apoeem7250 knock-in mice, 4 weeks (Table 22)
[10] = Spinal Cord, C57BL/6NTac-Apoeem7250 knock-in mice, 4 weeks (Table 21)
[11] = Spinal Cord, C57BL/6NTac-Apoeem7250 knock-in mice, 4 weeks (Table 22)

Protocol for BJAB cells: Human APOE modified oligonucleotides were tested for potential immunostimulatory properties in an in vitro human BJAB activation assay.
Human Burkitt lymphoma B cells, BJAB cells (DSMZ, Cat #ACC 757) were cultured in RPMI1640 medium containing 20% fetal bovine serum at 37° C. and 5% CO2. Cells were maintained at a density of 0.5-0.7×10^6 cells per milliliter. Cells were transferred to 50 mL conical Falcon tubes and centrifuged at 330 RCF for 5 minutes before being resuspended at a concentration of 7.5×10^4 cells per milliliter in RPMI culture medium containing penicillin and streptomycin. 50 μL of the cell suspension was added to a v-bottom tissue culture treated 96-well microplate. 11 μl of 10× concentrated modified oligonucleotides was then added to the plate for a final concentration of 1.6 μM and incubated for 24 hours at 37° C. and 5% CO2.
After a treatment period of 24 hours, total RNA was isolated from the cells and CCL22 RNA levels were measured by quantitative real-time RT-PCR. CCL22 RNA levels were measured by human primer-probe set RTS49260 (forward sequence [sequence], designated herein as SEQ ID NO: 19; reverse sequence [sequence], designated herein as SEQ ID NO: 20; probe sequence [sequence], designated herein as SEQ ID NO: 21). CCL22 RNA levels were normalized to total RNA content, as measured by GAPDH. Human GAPDH was measured using the human primer-probe set RTS104 (forward sequence [sequence], designated herein as SEQ ID NO: 10; reverse sequence [sequence], designated herein as SEQ ID NO: 11; probe sequence [sequence], designated herein as SEQ ID NO: 12). Levels of CCL22 RNA is presented log fold increase of CCL22, relative to untreated control cells (UTC). The assignment of the immunostimulatory properties of the test compounds is based on the immunostimulatory properties of the internal control compounds in each assay.

Substance | APOE RNA (% control) Cortex (human APOE RNA [3]) | APOE RNA (% control) Spinal Cord (human APOE RNA [3]) | APOE RNA (% control) Cortex (human APOE RNA [4]) | APOE RNA (% control) Spinal Cord (human APOE RNA [4]) | APOE RNA (% control) Cortex (human APOE RNA [1]; Table 17) | APOE RNA (% control) Spinal Cord (human APOE RNA [1]; Table 17) | APOE RNA (% control) Cortex (human APOE RNA [5]; [8]) | APOE RNA (% control) Cortex (human APOE RNA [5]; [9]) | APOE RNA (% control) Spinal Cord (human APOE RNA [5]; [10]) | APOE RNA (% control) Spinal Cord (human APOE RNA [5]; [11]) | APOE RNA (% control) Cortex (human APOE RNA [6]) | APOE RNA (% control) Spinal Cord (human APOE RNA [6]) | IC50 (human APOE RNA [7]) | APOE RNA (% UTC) (human APOE RNA [7]; 5 nM) | APOE RNA (% UTC) (human APOE RNA [7]; 13 nM) | APOE RNA (% UTC) (human APOE RNA [7]; 33 nM) | APOE RNA (% UTC) (human APOE RNA [7]; 82 nM) | APOE RNA (% UTC) (human APOE RNA [7]; 205 nM) | APOE RNA (% UTC) (human APOE RNA [7]; 512 nM) | APOE RNA (% UTC) (human APOE RNA [7]; 1,280 nM) | other results
Compound No. 1517853: comparator of WO 2022/066956; TTGGTGAATCTTTATTAAAC, sugar eeeeeddddddddddeeeee, linkages sooosssssssssssooss (MOE gapmer, mixed PS/PO linkages, chemistry not fully specified) [reference compound] | 67 % control | 50 % control |  |  |  |  |  |  |  |  |  |  |  |  |  |  |  |  |  |  | inflammatory response in human BJAB cells (BJAB cells): highly inflammatory; APOE RNA (% control) Cortex (human APOE RNA [1]; Table 16): 53 % control; APOE RNA (% control) Spinal Cord (human APOE RNA [1]; Table 16): 65 % control; APOE RNA (% control) Cortex (human APOE RNA [2]; cortex): 99 % control; APOE RNA (% control) Spinal Cord (human APOE RNA [2]; spinal cord): 98 % control; reduction of human APOE RNA in the cortex (human APOE RNA [3]; APOE knock-in mouse model, 8 weeks post administration, assay of Example 11): 33%
1693102: 6-10-4 MOE gapmer CTTGGTGAATCTTTATTAAA, linkages ssssoszzzssssszssss (e[5mC]*eT*eT*eG*eGeT*dG[ms]dA[ms]dA[ms]dT*d[5mC]*dT*dT*dT*dA[ms]dT*eT*eA*eA*eA) [compound 1693102] | 58 % control | 43 % control | 69 % control | 41 % control | 60 % control | 45 % control | 61 % control | 55 % control | 48 % control | 72 % control | 51 % control | 51 % control | 1170 nM | 89 % UTC | 95 % UTC | 87 % UTC | 92 % UTC | 80 % UTC | 64 % UTC | 48 % UTC | APOE RNA (% UTC) (human APOE RNA [7]; 3,200 nM): 32 % UTC; APOE RNA (% UTC) (human APOE RNA [7]; 8,000 nM): 22 % UTC; APOE RNA (% UTC) (human APOE RNA [7]; 20,000 nM): 10 % UTC
1693101: 6-10-4 MOE gapmer CTTGGTGAATCTTTATTAAA, linkages sssssozzzssssszssss (e[5mC]*eT*eT*eG*eG*eTdG[ms]dA[ms]dA[ms]dT*d[5mC]*dT*dT*dT*dA[ms]dT*eT*eA*eA*eA) [compound 1693101] | 58 % control | 46 % control | 71 % control | 56 % control | 79 % control | 57 % control | 71 % control | 57 % control | 50 % control | 77 % control | 62 % control | 55 % control | 4030 nM | 70 % UTC | 91 % UTC | 120 % UTC | 111 % UTC | 95 % UTC | 75 % UTC | 53 % UTC | APOE RNA (% control) Cortex (human APOE RNA [5]; cortex, 4 weeks post treatment, normalized to mouse Ppia): 57 % control; APOE RNA (% control) Spinal Cord (human APOE RNA [5]; spinal cord, 4 weeks post treatment, normalized to mouse Ppia): 56 % control; APOE RNA (% UTC) (human APOE RNA [7]; 3,200 nM): 58 % UTC; APOE RNA (% UTC) (human APOE RNA [7]; 8,000 nM): 49 % UTC; APOE RNA (% UTC) (human APOE RNA [7]; 20,000 nM): 20 % UTC
